Ends that are not written are not given here.
How the values were obtained:
[1] = test system: human bronchial epithelial cells (BEAS-2B)
[2] = Electronic tongue analysis (Taste-Sensing System SA 402B); design: unit not given here; conditions: reference solution 30 mM KCl + 0.3 mM tartaric acid as baseline, first measurement excluded; for Umami: sensor AAE; for Umami / Bitter / Sweet: detection threshold 0, room temperature; for Umami / Bitter / Sour / Salty: four replicates; for Sour: detection threshold -13, room temperature; for Salty: detection threshold -6, room temperature; for Sweet: measured five times
Outline: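 Room-temperature electronic-tongue readings with five taste probes, calibrated against a reference of 30 mM KCl and 0.3 mM tartaric acid. Samples at 0.1 mg/mL and 1.0 mg/mL were measured four times, sweetness five times, and the first run was dropped. Detection cut-offs were sour −13, salty −6, others 0.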

[3] = test system: human umbilical vein endothelial cells (HUVEC)
[4] = test system: human embryonic kidney cells (HEK293T)
[5] = test system: human pancreatic ductal epithelial cells (HPNE)

| Substance | Average cell viability, BEAS-2B [1] | Cell viability, BEAS-2B, Data1 [1] | Cell viability, BEAS-2B, Data2 [1] | Cell viability, BEAS-2B, Data3 [1] | Umami ([2]; peptide 1 mg/mL) | Bitter ([2]; sensor C00, peptide 1 mg/mL) | Sour ([2]; sensor CA0, peptide 0.1 mg/mL) | Sour ([2]; sensor CA0, peptide 1 mg/mL) | Salty ([2]; sensor CT0, peptide 1 mg/mL) | Sweet ([2]; sensor GL1, peptide 0.1 mg/mL) | Sweet ([2]; sensor GL1, peptide 1 mg/mL) | Average cell viability, HUVEC [3] | Cell viability, HUVEC, Data1 [3] | Cell viability, HUVEC, Data2 [3] | Cell viability, HUVEC, Data3 [3] | Average cell viability, HEK293T [4] | Cell viability, HEK293T, Data1 [4] | Cell viability, HEK293T, Data2 [4] | Cell viability, HEK293T, Data3 [4] | Average cell viability, HPNE [5] | other results |
| --- | --- | --- | --- | --- | --- | --- | --- | --- | --- | --- | --- | --- | --- | --- | --- | --- | --- | --- | --- | --- | --- |
| STGTIR [TaPep51] | 98.34 | 100.20 | 97.01 | 97.81 | -2.27 | 7.16 | -8.80 | 5.93 | 8.48 | 12.64 | -1.16 | 103.43 | 102.66 | 96.59 | 111.04 | 100.60 | 100.60 | 99.65 | 101.55 | 102.86 | Umami ([2]; peptide 0.1 mg/mL): 3.88; Bitter ([2]; sensor C00, peptide 0.1 mg/mL): 9.91; Salty ([2]; sensor CT0, peptide 0.1 mg/mL): -19.53; Cell viability, HPNE, Data1 [5]: 115.31; Cell viability, HPNE, Data2 [5]: 89.05; Cell viability, HPNE, Data3 [5]: 104.23 |
| AQKQE [TaPep53] | 99.50 | 92.92 | 110.37 | 95.21 | -3.47 | 2.74 | -6.36 | 8.92 | 13.59 | 9.02 | -4.92 | 99.25 | 90.21 | 95.96 | 111.60 | 96.06 | 101.55 | 93.50 | 93.12 | 100.53 | Umami ([2]; peptide 0.1 mg/mL): 2.86; Bitter ([2]; sensor C00, peptide 0.1 mg/mL): 7.88; Salty ([2]; sensor CT0, peptide 0.1 mg/mL): -19.95; Cell viability, HPNE, Data1 [5]: 111.51; Cell viability, HPNE, Data2 [5]: 101.33; Cell viability, HPNE, Data3 [5]: 88.75 |
| LQDVVE [TaPep24] | 113.59 | 103.99 | 117.45 | 119.34 | -3.57 | 3.73 | -4.17 | 9.09 | 4.83 | 6.22 | -4.08 | 103.54 | 91.48 | 106.25 | 112.88 | 99.02 | 102.40 | 97.85 | 96.81 | 93.71 | Cell viability, HPNE, Data1 [5]: 94.37; Cell viability, HPNE, Data2 [5]: 92.98; Cell viability, HPNE, Data3 [5]: 93.78 |
| PTELESD [TaPep41] | 110.80 | 117.85 | 114.36 | 100.20 | -3.94 | 3.91 | -3.84 | 9.16 | 2.54 | 8.41 | -8.94 | 103.09 | 108.17 | 102.98 | 98.11 | 106.18 | 94.54 | 110.54 | 113.47 | 95.94 | Umami ([2]; peptide 0.1 mg/mL): 1.88; Bitter ([2]; sensor C00, peptide 0.1 mg/mL): 7.34; Salty ([2]; sensor CT0, peptide 0.1 mg/mL): -20.79; Cell viability, HPNE, Data1 [5]: 86.16; Cell viability, HPNE, Data2 [5]: 113.91; Cell viability, HPNE, Data3 [5]: 87.75 |
| SLEYEFK [TaPep38] | 103.09 | 93.12 | 112.36 | 103.79 | -3.92 | 3.12 | -5.92 | 9.17 | 10.85 | 7.68 | -5.11 | 107.74 | 112.64 | 110.32 | 100.27 | 98.90 | 94.16 | 101.26 | 101.26 | 96.57 | Umami ([2]; peptide 0.1 mg/mL): 2.66; Bitter ([2]; sensor C00, peptide 0.1 mg/mL): 7.67; Salty ([2]; sensor CT0, peptide 0.1 mg/mL): -19.89; Cell viability, HPNE, Data1 [5]: 86.36; Cell viability, HPNE, Data2 [5]: 94.14; Cell viability, HPNE, Data3 [5]: 109.22 |
